Tested on: Wnt3a-mediated β-catenin signaling in HEK293-TB cells
Type: cell-based

## LPSDDAEFWCHVMY [dFz7-21-L6A]
  reduction in cellular potency: ~800 fold
